The text below walks through data of patent publication US4550166A, “(Pyridinyl)-1,2,4-triazolo[4,3-a]pyridines” (American Cyanamid Company, priority 1984, dated 1985).

The subject of test [1] is clonic seizures caused by pentylenetetrazole in rats. The experiment in a line: Protection Against Clonic Siezures Caused by Pentylenetetrazole in Rats. It counts as in vivo. The conditions noted are these: Dose 25 mg/kg, orally or intraperitoneally, pentylenetetrazole 23 mg/kg i.v. at 30 or 60 minutes. On the procedure:
The antianxiety properties of the novel compounds of the present invention have been established in a test which indicates anxiolytic activity by the measure of protection from convulsions resulting from the administration of pentylenetetrazole. Single or graded dose levels of the test compounds were administered orally or intraperitoneally in a 2% starch vehicle, containing 0.5% v/v polyethylene glycol and one drop of Polysorbate 80 to groups of at least four rats. At 30 or 60 minutes, the rats were treated intravenously with pentylenetetrazole at a dose of 23 mg/kg of body weight. This dose is estimated to cause clonic seizures in 99% of unprotected rats.
It has been reported [R. T. Hill and D. H. Tedeschi, "Animal Testing and Screening Procedures in Evaluating Psychotropic Drugs" in An Introduction to Psychopharmacology, Eds. R. R. Rech and K. E. Moore, Raven Press, New York, pp 237-288 (1971)] that there is a high degree of correlation between antagonism of pentylenetetrazole seizures in rats and antianxiety effects in higher warm-blooded animals.

In test [2] the test system is Brain-specific Receptors of Rats (^3 H-benzodiazepine binding). The experiment in a line: Inhibition of the Binding of ^3 H--Benzodiazepine to Brain-specific Receptors of Rats. On the set-up: species or system rats (male albino, Wistar strain). Conditions: 1 μM; whole cortex of rats, P2 fraction; ^3 H-diazepam (1.5 nM) or ^3 H-flunitrazepam (1.0 nM).
The test system of test [3] is conflict situation in rats. The experiment in a line: Non-Conditioned Passive Avoidance Test in Rats. Conditions: Dose 25 mg/kg, oral or intraperitoneal, 30 or 60 minutes. It counts as in vivo, Wistar strain rats. Further details: key: Active: considered active if the number of shocks received by the test group is significantly higher than the control group by the Mann-Witney U test. The protocol: Another test which has been used to assess anti-anxiety effects is a non-conditioned passive avoidance procedure described by J. R. Vogel, B. Beer and D. E. Clody, "A Simple and Reliable Conflict Procedure for Testing Antianxiety Agents", Psychopharmacologia, 21, 1-7 (1971). A conflict situation was induced in rats by a modification of this method.
Groups of 6 naive, Wistar strain rats, weighing 200-240 g each, were deprived of water for 48 hours and food for 24 hours. The test compounds were administered in single or graded, oral or intraperitoneal doses, suspended in a 2% starch vehicle containing 0.5% v/v polyethylene glycol and one drop of Polysorbate 80. Control animals received the vehicle alone. At 30 or 60 minutes each rat was placed in an individual plexiglass chamber. Water was available ad libitum from a tap located in the rear of the chamber. A 0.7 milliampere DC shocking current was established between the stainless steel grid floor and the tap. After 20 licks of non-shocked drinking, a shock was delivered for 2 seconds and then further shocks were delivered on a ratio of one shock for 2 seconds for every 20 licks. This was continued for a total of 3 minutes. The number of shocks taken by each rat during the 3 minute interval was recorded and compared to a control group.

As usually defined, the % Inhibition is the change of the read-out against control, counted positive when it falls. In the case of `Cc1nnc2ccc(-c3cccnc3)cn12` [3-Methyl-6-(3-pyridinyl)-1,2,4-triazolo[4,3-a]pyridine], in test [1], the “% of Rats Protected” value is reported as 75%. Moreover, the “% Inhibition” value in test [2] is on record as 20%.

As to `Cc1nnc2cc(-c3ccccn3)ccn12` [3-Methyl-7-(2-pyridinyl)-1,2,4-triazolo[4,3-a]pyridine], the “% Inhibition” value in test [2] came to 27%.

On to `Cc1nnc2cc(-c3ccncc3)ccn12` [3-Methyl-7-(4-pyridinyl)-1,2,4-triazolo[4,3-a]pyridine], for which, in test [2], the “% Inhibition” value is on record as 24%.

For `Cc1nnc2c(-c3ccccn3)cccn12` [3-Methyl-8-(2-pyridinyl)-1,2,4-triazolo[4,3-a]pyridine], the “% Inhibition” value in test [2] was 22%. For the same compound, the Result result in test [3] is given as “Active”.

With `Cc1nnc2c(-c3cccnc3)cccn12` [3-Methyl-8-(3-pyridinyl)-1,2,4-triazolo[4,3-a]pyridine], the “% Inhibition” value in test [2] worked out at 24%. Besides, the Result entry in test [3] is “Active”.

With `c1ccc(-c2cccc3nncn23)nc1` [5-(2-Pyridinyl)-1,2,4-triazolo[4,3-a]pyridine], the “% Inhibition” value in test [2] worked out at 26%.

Regarding `c1cncc(-c2ccc3nncn3c2)c1` [6-(3-Pyridinyl)-1,2,4-triazolo[4,3-a]pyridine], the “% of Rats Protected” value in test [1] is recorded as 33%. Further, the “% Inhibition” value in test [2] was 13%.

Regarding `c1ccc(-c2ccn3cnnc3c2)nc1` [7-(2-Pyridinyl)-1,2,4-triazolo[4,3-a]pyridine], in test [1], the “% of Rats Protected” value came out at 25%. The “% Inhibition” value in test [2] is 15%.

As for `c1ccc(-c2cccn3cnnc23)nc1` [8-(2-Pyridinyl)-1,2,4-triazolo[4,3-a]pyridine], the “% Inhibition” value in test [2] was found to be 26%.

On to `c1cncc(-c2cccn3cnnc23)c1` [8-(3-Pyridinyl)-1,2,4-triazolo[4,3-a]pyridine], for which, in test [2], the “% Inhibition” value was 18%.
